Reference: PMC12769732 (Nature Communications, 2025)
Where two headings read alike, the source gives them in different places.

Assays:
DAT WT = DAT WT (Homo sapiens, UniProt Q01959); assay: [3H]Dopamine transport assay, wild-type DAT; assay type: cell-based
DAT F326A = DAT F326A (Homo sapiens, UniProt Q01959, F326A); assay: [3H]Dopamine transport assay, DAT F326A mutant; assay type: cell-based; settings: for IC50: IC50 of [3H]dopamine uptake, F326A mutant of DAT, HEK-293F cells, n = 3
DAT V152A = DAT V152A (Homo sapiens, UniProt Q01959, V152A); assay: [3H]Dopamine transport assay, DAT V152A mutant; assay type: cell-based
DAT [1] = settings: cited from earlier work
NET = settings: cited from earlier work
SERT [2] = settings: cited from earlier work
DAT [3] = assay: Reported inhibition of DAT; assay type: biochemical; settings: relative to tesofensine
DAT S422A = DAT S422A (Homo sapiens, UniProt Q01959, S422A); assay: [3H]Dopamine transport assay, DAT S422A mutant; assay type: cell-based
SERT [4] = settings: read-out: reported equilibrium dissociation constant (KD) for SERT; cited from earlier work
SERT [5] = settings: ref 75 (El-Kasaby A, et al.); cited from earlier work
DAT [6] = target: DAT (Homo sapiens, UniProt Q01959); settings: close analog of nefazodone; no reference given; cited from earlier work
DAT (Homo sapiens, UniProt Q01959), sequence (Q01959 whole entry): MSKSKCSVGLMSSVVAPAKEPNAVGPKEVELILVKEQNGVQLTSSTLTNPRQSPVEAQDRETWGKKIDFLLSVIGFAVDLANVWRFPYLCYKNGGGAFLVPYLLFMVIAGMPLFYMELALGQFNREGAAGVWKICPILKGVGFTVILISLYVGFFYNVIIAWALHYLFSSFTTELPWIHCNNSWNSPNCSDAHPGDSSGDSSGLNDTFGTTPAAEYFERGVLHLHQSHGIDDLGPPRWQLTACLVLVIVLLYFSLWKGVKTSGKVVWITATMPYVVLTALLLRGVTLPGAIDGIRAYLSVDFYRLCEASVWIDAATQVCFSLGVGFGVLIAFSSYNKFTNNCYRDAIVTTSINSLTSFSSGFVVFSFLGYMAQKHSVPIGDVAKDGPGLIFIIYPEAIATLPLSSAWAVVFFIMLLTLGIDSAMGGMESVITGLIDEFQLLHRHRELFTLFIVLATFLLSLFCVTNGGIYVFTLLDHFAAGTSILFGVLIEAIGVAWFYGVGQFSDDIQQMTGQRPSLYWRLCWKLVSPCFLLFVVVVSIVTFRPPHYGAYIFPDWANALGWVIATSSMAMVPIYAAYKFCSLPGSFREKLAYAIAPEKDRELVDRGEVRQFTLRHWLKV

DAT F326A, sequence (Q01959 57-620 F326A limits assumed): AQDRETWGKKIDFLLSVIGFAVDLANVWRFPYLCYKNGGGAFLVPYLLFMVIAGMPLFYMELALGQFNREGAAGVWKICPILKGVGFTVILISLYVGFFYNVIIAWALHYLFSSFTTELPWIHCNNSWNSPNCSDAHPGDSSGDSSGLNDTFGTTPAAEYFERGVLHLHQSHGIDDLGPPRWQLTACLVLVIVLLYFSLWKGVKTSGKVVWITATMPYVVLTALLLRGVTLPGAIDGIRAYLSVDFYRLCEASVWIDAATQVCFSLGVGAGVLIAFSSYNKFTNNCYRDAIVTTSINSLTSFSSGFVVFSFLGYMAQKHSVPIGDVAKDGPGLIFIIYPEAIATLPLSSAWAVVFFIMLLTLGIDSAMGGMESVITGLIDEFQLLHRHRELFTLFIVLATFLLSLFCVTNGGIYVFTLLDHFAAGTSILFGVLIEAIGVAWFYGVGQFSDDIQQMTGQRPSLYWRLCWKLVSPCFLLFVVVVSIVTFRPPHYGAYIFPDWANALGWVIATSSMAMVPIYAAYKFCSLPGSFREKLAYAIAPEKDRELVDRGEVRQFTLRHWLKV
DAT V152A, sequence (Q01959 57-620 V152A limits assumed): as the sequence (Q01959 57-620 F326A limits assumed) above, with V96A, A270F counted along it
DAT WT, sequence (Q01959 57-620 limits assumed): as the sequence (Q01959 57-620 F326A limits assumed) above, with A270F counted along it
DAT S422A, sequence (Q01959 57-620 S422A limits assumed): as the sequence (Q01959 57-620 F326A limits assumed) above, with A270F, S366A counted along it

c1ccc2cc([C@]34CNC[C@H]3C4)ccc2c1 [centanafadine]
IC50 (DAT WT): 116 nM
IC50 (DAT F326A): 2090 nM
IC50 (DAT V152A): 246 nM
change of IC50 versus DAT WT (DAT V152A; V152A mutant versus WT): nearly doubling
IC50 (DAT [1]; read-out: IC50 of dopamine reuptake): 38 nM
IC50 (NET; read-out: IC50 of norepinephrine reuptake): 6 nM
IC50 (SERT [2]; read-out: IC50 of serotonin reuptake): 83 nM

COC(=O)[C@H]1[C@@H](OC(=O)c2ccccc2)C[C@@H]2CC[C@H]1N2C [cocaine]
fold lower affinity for DAT than tesofensine (DAT [3]): 50 fold

N[C@@H]1CC[C@@H](c2ccc(Cl)c(Cl)c2)c2ccccc21 [dasotraline]
IC50 (DAT WT): 2.43 nM
fold increase of IC50 (decrease of inhibitory potency) versus DAT WT (DAT F326A; F326A mutant versus WT): approximately 1500 fold
IC50 (DAT F326A): 3740 nM
IC50 (DAT S422A): 4700 nM
fold increase of IC50 versus DAT WT (DAT S422A; S422A mutant versus WT): 1900 fold
IC50 (DAT [1]; read-out: reported IC50 on DAT): 3 nM
IC50 (NET; read-out: reported IC50 on NET): 4 nM
IC50 (SERT [2]; read-out: reported IC50 on SERT): 15 nM

CCc1nn(CCCN2CCN(c3cccc(Cl)c3)CC2)c(=O)n1CCOc1ccccc1 [nefazodone]
Kd (SERT [4]): 200 nM
mode of inhibition of SERT (SERT [5]): non-competitive

O=c1n(CCCN2CCN(c3cccc(Cl)c3)CC2)nc2ccccn12 [trazodone]
affinity for DAT compared with nefazodone (DAT [6]): markedly reduced
